Cytotoxicity data for 104 molecules are collected here from ChEMBL document CHEMBL3507680, “University of Dundee, Gates Library screen for HepG2 cell viability”.

This series is described as follows: Human HepG2 cell viability assay in 384 well format. Particulars: HepG2 cells, read-out: Inhibition. It is filed as toxicity, cell-based. Also on record: dose 125 nL, time 70.5 hour; cytotoxicity at 70.5 h: concentration not given beside the values.
Turning to `CC(Cn1cccn1)NCC(=O)N(C)Cc1ccsc1` (centres undefined), the cytotoxicity at 70.5 h is 35.4%. Turning to `CC(C)(C)c1ncc(CNc2ccccc2SCCC(N)=O)s1`, the cytotoxicity at 70.5 h is 3.11%.

In the case of `Cc1oc(-c2ccccc2)nc1CN1CCC(c2ccnn2C)CC1`, the cytotoxicity at 70.5 h was -78.8%. Turning to `Cc1ccc(C(NCC(=O)N2CCNC(=O)C2)c2ccccc2)cc1` (centres undefined), the cytotoxicity at 70.5 h is -104%. `Cc1cc(N2CCc3cnc(C)nc3C2)n2nc(C(F)(F)F)nc2n1`: the cytotoxicity at 70.5 h was -108%. With `Cc1noc(C)c1CS(=O)(=O)C(C)C(=O)N(C)c1ccccc1` (centres undefined), the cytotoxicity at 70.5 h was -111%.

As to `O=C(CN(CC(O)c1ccc(F)cc1)C1CC1)NC(C1CC1)C1CC1` (centres undefined), the cytotoxicity at 70.5 h was -90.6%.

As to `Cc1ccc(N2CCC(C(=O)NC3CCc4nccn4C3)CC2)nc1` (centres undefined), the cytotoxicity at 70.5 h is -90.5%.

`CCc1nn(C)c2[nH]nc(NC(=O)c3cccnc3OC)c12`: the cytotoxicity at 70.5 h was -112%.

For `COc1ccc(C(N)=O)cc1NCc1ncc(-c2cccs2)o1`, the cytotoxicity at 70.5 h was -14%.

In the case of `NC(=O)N1CCC(C(=O)NC2CCc3nccn3C2)CC1` (centres undefined), the cytotoxicity at 70.5 h was -110%.

As to `COc1ccc(C(N)=O)cc1NCc1nc(-c2cccs2)oc1C`, the cytotoxicity at 70.5 h was -102%.

Regarding `COc1ccc(NC(=O)c2ccccc2NCc2ncnn2C)cc1`, the cytotoxicity at 70.5 h was -19.9%. The same measure for `CNC(=O)NC(C)c1c(F)cccc1Cl` (centres undefined): -107%; for `Cc1ccc(CNc2ccccc2SCCC(N)=O)s1`: -99.2%; for `CC(C)n1cnnc1C1CCCN(S(=O)(=O)CCCF)C1` (centres undefined): -93.6%. In the case of `Cc1cc(NC(=O)N2CCCC2C(=O)NC2CC2)c2ncccc2c1` (centres undefined), the cytotoxicity at 70.5 h is -98%.

Take `Cc1cc(NC(=O)N2CCCC2C(C)(C)O)c2ncccc2c1` (centres undefined): the cytotoxicity at 70.5 h was -75.7%. With `CCOc1ccc(NC(C)c2nnnn2-c2ccccc2)cc1CO` (centres undefined), the cytotoxicity at 70.5 h is -66.6%. Take `COCC(O)CN(C)C(=O)NCc1ccc(-c2ccn[nH]2)cc1` (centres undefined): the cytotoxicity at 70.5 h is -85.9%.

`CS(=O)(=O)CCN(CCCO)C1CCc2ccccc21` (centres undefined): the cytotoxicity at 70.5 h is -98.4%. On to `CCS(=O)(=O)NCCN(CCO)C1CCc2ccccc21` (centres undefined), for which the cytotoxicity at 70.5 h was -58.4%. `O=C1CN(C(=O)CNC(CC(F)(F)F)c2ccc(F)cc2)CCN1` (centres undefined): the cytotoxicity at 70.5 h is -55.7%. For the molecule `COCCC(=O)Nc1ccnn1-c1ccccc1`, the cytotoxicity at 70.5 h was found to be 1.36%.

`CC(=O)NCCc1ccc(S(=O)(=O)Nc2ccc(C)c(F)c2)s1`: the cytotoxicity at 70.5 h was -5.64%. As for `CC(C)c1ncc(Cl)c(C(=O)N2CCN(C3CCCC3)CC2)n1`, the cytotoxicity at 70.5 h is -3.22%. Regarding `CC1(c2ccc(Br)cc2)CC(=O)N(CCC#N)C1=O` (centres undefined), the cytotoxicity at 70.5 h turned out to be 32.5%.

`O=C(Nc1ccccc1N1CCOC1=O)N1CCc2sccc2C1`: the cytotoxicity at 70.5 h is -8.21%. With `OCCN1CCN(CC(O)c2ccc(C(F)(F)F)cc2)CC1` (centres undefined), the cytotoxicity at 70.5 h was 33.3%. For `COc1cc(CSc2nnc(N)n2C2CC2)ccc1SC`, the cytotoxicity at 70.5 h was -5.1%. For the molecule `CC1(c2ccc(Br)cc2)CC(=O)N(CC(N)=O)C1=O` (centres undefined), the cytotoxicity at 70.5 h was determined as 32.3%.

With `CCC(NC(=O)CNC(=O)OC)c1cc(F)ccc1F` (centres undefined), the cytotoxicity at 70.5 h is -2.42%. Take `COCCNC(=O)Cn1cc(NC(=O)c2cccc(Cl)c2Cl)cn1`: the cytotoxicity at 70.5 h was -1.6%. For `COCC(=O)Nc1ccnn1-c1ccc(Cl)cc1`, the cytotoxicity at 70.5 h was found to be 3.64%. Regarding `Cc1cc(C)cc(CNc2ccc(C(=O)NC(C)CO)cc2)c1` (centres undefined), the cytotoxicity at 70.5 h was -1.12%. In the case of `CSCc1cc(C(=O)NC2(C#N)CC2)ccc1F`, the cytotoxicity at 70.5 h is -0.691%.

Consider `CCc1nc(C(=O)N2CC(C(C)C)Nc3ccccc32)c[nH]1` (centres undefined), for which the cytotoxicity at 70.5 h was -7.98%.

Consider `CCc1nc(C(=O)N2CC(C)CN(C)c3ccccc32)c[nH]1` (centres undefined), for which the cytotoxicity at 70.5 h is -2.27%.

Consider `Cc1nc(CNC(=O)Nc2cc(F)ccc2OC(F)F)no1`, for which the cytotoxicity at 70.5 h was -3.38%.

On to `CC1CN(C)c2ccccc2N(C(=O)c2c[nH]c(C(C)C)n2)C1` (centres undefined), for which the cytotoxicity at 70.5 h was 31.3%. The same measure for `Cc1ncccc1C(=O)Nc1cccc(OCC(F)F)n1`: -8.26%; for `CC(=O)N1CCC[C@H]1C(=O)NCCCN(C(C)C)S(C)(=O)=O`: -6.32%; for `CC(C)N(CCCNC(=O)C1CC(=O)N(C)C1)S(C)(=O)=O` (centres undefined): 33.7%. On to `CN(Cc1nnn(CC2CC2)n1)C(=O)c1ccccc1`, for which the cytotoxicity at 70.5 h amounted to 32.1%. Take `FC(F)(F)COc1ccc(CSCc2ccon2)cn1`: the cytotoxicity at 70.5 h is -8.78%. Take `CCN(C(=O)Nc1nccs1)C(C)c1cccc(O)c1` (centres undefined): the cytotoxicity at 70.5 h was -9.8%. Take `Cn1cc(CNCCNc2ncc(Cl)cc2Cl)cn1`: the cytotoxicity at 70.5 h is -4.79%.

In the case of `COc1c(C)cnc(CN2CCCC2c2noc(C3CC3)n2)c1C` (centres undefined), the cytotoxicity at 70.5 h was 1.14%.

For the molecule `COC(=O)c1ccc(Cn2cnc(C#N)n2)cc1`, the cytotoxicity at 70.5 h was -12%.

As to `NCc1cccc(NC(=O)CCN2CCOCC2)c1`, the cytotoxicity at 70.5 h is -9.57%. The same measure for `CSCCC(NC(=O)c1ccco1)C(=O)N(C)Cc1ccsc1` (centres undefined): -4.71%; for `COc1ccc(CCN(C)C(=O)c2cc(C(C)=O)c[nH]2)cc1OC`: -11.9%. For the molecule `O=C(CCN1CCOCC1)Nc1cccc(CNCc2ccsc2)c1`, the cytotoxicity at 70.5 h amounted to 14.1%. To `Cc1n[nH]c(C)c1NC(=O)NCc1cc[nH]n1` belongs -12.5%; to `COc1ccc(CCCN(C)C(=O)c2cc(Cl)c[nH]2)cc1OC`, -10.5%; to `CS(=O)(=O)NCC1CCCN(Cc2ccccc2F)C1` (centres undefined), -7.12%. Regarding `O=C(NCc1ccco1)N1CCOC(c2ccccc2Cl)C1` (centres undefined), the cytotoxicity at 70.5 h was -15.6%. As for `O=C(NCCc1ccccn1)N1CCOC(c2ccccc2Cl)C1` (centres undefined), the cytotoxicity at 70.5 h was -5.38%.

With `CSc1ccc(C)c(C(=O)Nc2c(C(N)=O)n[nH]c2C)c1`, the cytotoxicity at 70.5 h is -5.86%. Consider `COc1cc(F)cc2sc(NC(=O)COCC3CCCO3)nc12` (centres undefined), for which the cytotoxicity at 70.5 h came out at 13.2%. `N#Cc1cccnc1NCCNC(=O)N1CCCSCC1`: the cytotoxicity at 70.5 h was -13%. In the case of `CCc1ccc(S(=O)(=O)Nc2cn(C)cc(Br)c2=O)cc1`, the cytotoxicity at 70.5 h was 7.59%. The same measure for `CN(C)C(=O)N1CCN(Cc2nnc(C(C)(C)C)o2)CC1`: -4.6%. On to `CCc1nc(CN(C)CC2CCN(CC(C)O)CC2)no1` (centres undefined), for which the cytotoxicity at 70.5 h is -4.55%.

Regarding `Cc1nnc(C(C)NCC2(c3ccc(Cl)cc3)CCCC2)o1` (centres undefined), the cytotoxicity at 70.5 h was -7.22%.

Regarding `COc1ccc(C2(CNC(C)c3nnc(C)o3)CCCCC2)cc1` (centres undefined), the cytotoxicity at 70.5 h is -8.26%.

`Cc1ccc(CN(C)C(=O)CN2CCCC2Cn2cccn2)o1` (centres undefined): the cytotoxicity at 70.5 h is -9.22%. Consider `Cc1cnn(CC2CCCN2CC(=O)N(C)CCC#N)c1` (centres undefined), for which the cytotoxicity at 70.5 h is -7.49%. On to `CN(CC1CCCCO1)C(=O)c1ccnc(OC2CCC2)c1` (centres undefined), for which the cytotoxicity at 70.5 h is -5.26%.

On to `CCc1nnc2n1CCN(Cc1csc(-c3cnn(C)c3)n1)C2`, for which the cytotoxicity at 70.5 h was found to be 6.48%.

Turning to `Cc1cc(NC(=O)CCc2ccsc2)n(C)n1`, the cytotoxicity at 70.5 h is -9.51%. The same measure for `O=S1(=O)CCCN1Cc1coc(-c2cccs2)n1`: -10.6%; for `CC(C)(C)NC(=O)CNC(=O)CCc1ccccc1Br`: -8.13%. Regarding `CCCNC(=O)C(C)NC(=O)CCc1ccccc1Br` (centres undefined), the cytotoxicity at 70.5 h is -6.3%. To `CC1CCN(CCNC(=O)C2CCN(S(N)(=O)=O)CC2)CC1` belongs -3.07%; to `CN(C)CCN(Cc1ccc(Cl)cc1)C(=O)c1cc[nH]n1`, -3.35%. For the molecule `NC(=O)CN1CCC(NC(=O)c2ccn(-c3cccc(F)c3)n2)CC1`, the cytotoxicity at 70.5 h is -3.27%.

`Brc1cc2c(cc1CN1CCC(N3CCCCC3)CC1)OCCO2`: the cytotoxicity at 70.5 h is -2.82%. On to `CC(NC(=O)N(C)Cc1ccncc1)c1nncn1C` (centres undefined), for which the cytotoxicity at 70.5 h was -4.45%. To `COc1cc(C)nc(N2CCN(Cc3nccn3C)CC2)n1` belongs 0.0501%. The same measure for `Cc1cc(NC(=O)CN2CCc3nn(C)c(=O)cc3C2)on1`: 1.43%. `CSCCCNC(=O)Nc1cccc(-c2nccn2C)c1`: the cytotoxicity at 70.5 h was 3.57%. Take `Cn1ccnc1-c1cccc(NC(=O)NCCCO)c1`: the cytotoxicity at 70.5 h turned out to be 1.83%. Consider `N#Cc1cccc(SCCS(N)(=O)=O)c1`, for which the cytotoxicity at 70.5 h was -6.9%. `Cc1nc(C2CCCN(C(=O)c3scnc3C)C2)no1` (centres undefined): the cytotoxicity at 70.5 h was -7.6%. `Cc1nc(C2CCCN(C(=O)c3sccc3C3CC3)C2)no1` (centres undefined): the cytotoxicity at 70.5 h is -8.62%. Regarding `O=C(c1cc(Cl)c2c(c1)OCO2)N1CCN(c2ccccn2)CC1`, the cytotoxicity at 70.5 h is -2.19%. For `CC(NC(=O)C1=NN(C)C(=O)CC1)c1ccc(F)cc1F` (centres undefined), the cytotoxicity at 70.5 h was found to be 20%. Take `CC(OCC(F)(F)F)C(=O)N1CCN(S(C)(=O)=O)CC1` (centres undefined): the cytotoxicity at 70.5 h is -1.69%. Turning to `O=C(NCCCn1cccn1)C1(c2ccc(F)cc2)CC1`, the cytotoxicity at 70.5 h was -2.75%. The same measure for `Cc1cccc(C2(C(=O)NCCCn3cccn3)CC2)c1`: -5.49%; for `Cc1ccc(C(=O)NC(CN2CCCC2=O)c2ccccc2)c(=O)[nH]1` (centres undefined): 17.4%.

In the case of `Cc1nc(C(C)(C)NC(=O)Nc2cccc(C#N)c2)no1`, the cytotoxicity at 70.5 h was -2.69%. On to `OCCOc1nc(-c2ccccc2Cl)no1`, for which the cytotoxicity at 70.5 h was -1.34%. As for `O=C1OCCN1CCOc1nc(-c2ccccc2Cl)no1`, the cytotoxicity at 70.5 h is -4.69%. `CN(CC(F)(F)F)C(=O)C1CSCN1C(=O)OC(C)(C)C` (centres undefined): the cytotoxicity at 70.5 h was determined as 4.04%. In the case of `CCCc1cc(NC2CCc3ncnn3C2)n2ncnc2n1` (centres undefined), the cytotoxicity at 70.5 h was found to be 0.783%.

Take `Cc1nc2n(n1)CC(Nc1cc(C(F)(F)F)nc3ncnn13)CC2` (centres undefined): the cytotoxicity at 70.5 h is -0.866%.

For `CCc1ncc2c(n1)CN(Cc1nc(C)c(C)o1)CC2`, the cytotoxicity at 70.5 h worked out at 1.3%. Consider `Cc1c(Br)cccc1C(=O)NC(C)CN1CCCC1=O` (centres undefined), for which the cytotoxicity at 70.5 h turned out to be 1.84%.

Take `CCn1nc2c(cc1=O)CN(Cc1nc3ccccc3c(=O)[nH]1)CC2`: the cytotoxicity at 70.5 h was 0.253%.

As to `CCc1nc2n(n1)CC(Nc1cc(C)nc3ncnn13)CC2` (centres undefined), the cytotoxicity at 70.5 h was -5.27%. For the molecule `O=C(NS(=O)(=O)c1ccccc1Cl)c1cccc2c1OCCO2`, the cytotoxicity at 70.5 h is -3.53%. `O=C(NS(=O)(=O)c1cc(Cl)sc1Cl)c1cccc2c1OCCO2`: the cytotoxicity at 70.5 h was determined as 1.61%.
